Values of other authors, collected in patent US20200399148A1, “METHOD AND APPARATUS FOR ELECTROCHEMICAL pH CONTROL” (BAR-ILAN UNIVERSITY, priority 2018, published 2020).

Tested on: bacteria
Details: relative to hypochlorous acid

OCl [OCl^−, hypochlorite anion]
bactericidal activity, times less than hypochlorous acid: 80-120 time less
